This note sets out measurements from patent US12447121B2, “Composition for promoting the skin microbiome” (BEIERSDORF AG, priority 2020, dated 2025).

“Also recorded” adds a separate entry of the source.

For assay [1], the system named is S. epidermidis. Put plainly: In vitro growth assay (OD, absorption at 600 nm). The format is cell-based. To be noted: CASO deficiency medium. The protocol: Overnight cultures of S. epidermidis were inoculated in 20 ml CASO medium and incubated at 37° C. The culture was then diluted and adjusted to an OD600 of 0.25. From this suspension, the starting culture is prepared with a concentration of 5×10^5 CFU/ml by a 1:200 dilution in CASO deficiency medium. Subsequently, solutions containing the different nitrogen, carbon, and lipid sources were mixed with the start cultures and 200 μl/well were pipetted into a 96 well flat transparent plate, at least in triplets. The plate was placed in a Tecan Reader at 37° C. and Absorption was measured at 600 nm every hour over a period of 24-30 h.

Assay [2] has as its system S. epidermidis. Briefly: In vitro growth assay (plating, colony count). The settings on record: added to low nutrient medium, 37° C., plated and counted; FIGS. 1 and 2. Format: cell-based. The protocol: Potential growth-enhancing compounds that are effective in the stabilization of the microbiome were tested by the following in vitro assay. Overnight cultures of S. epidermidis is inoculated in 20 ml CASO medium and incubated at 37° C. The culture was then diluted and adjusted to an OD600 of 0.25. From this suspension, the starting culture is prepared with a concentration of 5×10^5 CFU/ml by a 1:200 dilution in CASO deficiency medium. Subsequently, solutions containing the different active ingredients were mixed with the start cultures and incubated in a thermal mixer at 37° C. by shaking. Samples are taken at the respective time points for testing, diluted with NaCl and plated out on CASO plates using the spiral plater. The plates are incubated for 24 h at 37° C. and then counted.

In another assay the test system is skin microbiome. Put plainly: In vivo volunteer study: microbial colony count of skin microbiome samples. Set-up: species or system human. To be noted: applied in the form of a skin care composition to the facial skin (as worded in the summary). The protocol: An in vivo study with 31 volunteers was conducted to examine whether the growth-enhancing compounds that were found effective in the in vitro test can also promote cell growth of the microorganisms in the skin microbiome in vivo when applied to the skin in the form of a lotion. For this purpose, a carrier lotion was prepared to which the test compounds, i.e. the compounds identified as growth-enhancing in the in vitro assays of Example 1, were added. The test formulations were prepared by mixing the compounds to be tested into the carrier lotion. The test formulations were composed as follows: • Formulation 20: […] Carrier lotion+1% urea, 1% sodium Lactate, 1% caprylic/capric triglycerides […] For measuring the microbial colony count, the test site was rinsed with swabs ([…] GmbH, […], Germany) by 3×10 lanes using 2 ml rinsing buffer (12.49 g/L Na2HPO; 0.63 g/L KH2PO4 in molecular grade H2O) in 15 ml Falcon tubes. The sample material was then plated within 60 minutes after collection on Columbia-Sheep-Blood-Tween (COST) agar plates and subsequently incubated. […] After incubation, the bacterial colonies on agar plates were counted using the Countermat Flash.

Consider `CC(O)C(=O)O` (centres unmarked) [Lactate, lactate], for which, in the assay on S. epidermidis [1], the “growth of S. epidermidis (summary in words of Tables 2 and 3)” value was “support the growth”. Further, the “growth of S. epidermidis within 24 hours” value in the assay on S. epidermidis [2] is recorded as “significant growth; also recorded: significantly promotes the growth”.

For the molecule `CC(=O)C(=O)O` [pyruvic acid], the “cell number of the resident bacteria” value in the assay on skin microbiome was “significantly increase”.

For `OC[C@H]1O[C@@](CO)(O[C@H]2O[C@H](CO)[C@@H](O)[C@H](O)[C@H]2O)[C@@H](O)[C@@H]1O` [Sucrose, saccharose], the “growth of S. epidermidis (summary in words of Tables 2 and 3)” value in the assay on S. epidermidis [1] is listed as “support the growth”.

Take `O=C(CO)[C@@H](O)[C@H](O)[C@H](O)CO` [Fructose, fructose]: the “growth of S. epidermidis (summary in words of Tables 2 and 3)” value in the assay with S. epidermidis [1] is recorded as “support the growth”.

Consider `CC(O)C(=O)O` (centres unmarked) [lactic acid], for which, in the assay with skin microbiome, the “cell number of the resident bacteria” value is given as “increase”.

As to maltodextrin, the “growth of S. epidermidis (summary in words of Tables 2 and 3)” value in the assay with S. epidermidis [1] is listed as “support the growth”.

In the case of `OC[C@H]1O[C@H](O[C@H]2[C@H](O)[C@@H](O)C(O)O[C@@H]2CO)[C@H](O)[C@@H](O)[C@@H]1O` (mixture of isomers) [Maltose, maltose], in the assay with S. epidermidis [1], the “growth of S. epidermidis (summary in words of Tables 2 and 3)” value is listed as “support the growth”.
